Source: patent publication US10023592B2, “Bromodomain inhibitors” (Celgene Quanticel Research, Inc., priority 2013, dated 2018)

Key:
BRD4(BD1) = BRD4(BD1) (Homo sapiens (Human), UniProt O60885); assay: In vitro enzyme inhibition assay (BRD4 AlphaScreen); type: binding
In short: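 AlphaScreen proximity readout, using streptavidin donor and Ni-chelate acceptor beads at 5 μg/mL final, monitors biotin-H4 tetraacetylated peptide interaction with purified His-tagged BRD4.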

[1] = system: Raji, human Burkitts lymphoma cells; assay: Cell-MTS proliferation assay, Raji; type: cell-based; conditions: Homo sapiens, 168 hr
In short: (§1)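 Seven-day colorimetric MTS assay; compound at 11 concentrations from 100 μM down to 2.0 nM final, added a day after plating. IC50 from OD490 normalised to DMSO controls.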

[2] = system: HL-60, human proleukemia cells; assay: Cell-MTS proliferation assay, HL-60; type: cell-based; conditions: Homo sapiens, 168 hr
In short: as §1

[3] = system: NCI-H460, human non-small cell lung cancer cells; assay: Cell-MTS proliferation assay, NCI-H460; type: cell-based; conditions: Homo sapiens, 168 hr
In short: as §1

[4] = in vitro enzyme inhibition assay
[5] = Cell-MTS proliferation, Raji cells
[6] = Cell-MTS proliferation, HL-60 cells
[7] = Cell-MTS proliferation, NCI-H460 cells
[8] = Raji, Cell-MTS, class symbols A/B/C
[9] = HL-60, Cell-MTS, class symbols A/B/C
[10] = NCI-H460, Cell-MTS, class symbols A/B/C
[11] = NCI-H460, Cell-MTS proliferation

| IC50 (BRD4(BD1); [4]) [nM] | IC50 [1, 5] [nM] | IC50 [2, 6] [nM] | IC50 [3, 7] [nM] | IC50 (BRD4(BD1); class symbols A/B/C) [nM] | IC50 [1, 8] [nM] | IC50 [2, 9] [nM] | IC50 [3, 10] [nM] | IC50 ([1]; Raji, Cell-MTS proliferation) [nM] | IC50 ([2]; HL-60, Cell-MTS proliferation) [nM] | IC50 [3, 11] [nM] | Structure (SMILES) |
| --- | --- | --- | --- | --- | --- | --- | --- | --- | --- | --- | --- |
| < 500 | < 500 | < 500 | > 5000 | – | – | – | – | – | – | – | CCS(=O)(=O)c1ccc(NC2CCCC2)c(-c2cc(C)c(=O)n(C)c2)c1 [Example 416, 5-[2-(cyclopentylamino)-5-ethylsulfonylphenyl]-1,3-dimethylpyridin-2-one] |
| – | – | – | – | < 500 | < 500 | < 500 | > 5000 | – | – | – | Cn1cc(-c2ccc3c(=O)n(C)cc(-c4cc(S(C)(=O)=O)ccc4OCC4CC4)c3c2)cn1 [Example 46, 4-[2-(cyclopropylmethoxy)-5-methylsulfonylphenyl]-2-methyl-6-(1-methylpyrazol-4-yl)isoquinolin-1-one] |
| < 500 | < 500 | < 500 | > 5000 | – | – | – | – | – | – | – | CN(C)c1cc(-c2cc(S(C)(=O)=O)ccc2OCC2CC2)cn(C)c1=O [Example 474, 5-[2-(cyclopropylmethoxy)-5-methylsulfonylphenyl]-3-(dimethylamino)-1-methylpyridin-2-one] |
| < 500 | < 500 | < 500 | > 5000 | – | – | – | – | – | – | – | CCS(=O)(=O)c1ccc(NC2CCC(F)(F)CC2)c(-c2cc(C)c(=O)n(C)c2)c1 [Example 397, 5-[2-[(4,4-difluorocyclohexyl)amino]-5-ethylsulfonylphenyl]-1,3-dimethylpyridin-2-one] |
| < 500 | – | – | – | – | – | – | – | > 5000 | 500 to 5000 | > 5000 | CCS(=O)(=O)Nc1ccc(Oc2ccc(F)cc2F)c(-c2cn(C)c(=O)c3nncn23)c1 [Example 236, N-[4-(2,4-difluorophenoxy)-3-(7-methyl-8-oxo-[1,2,4]triazolo[4,3-a]pyrazin-5-yl)phenyl]ethanesulfonamide] |
| < 500 | < 500 | < 500 | > 5000 | – | – | – | – | – | – | – | Cc1cc(-c2cc(CS(C)(=O)=O)ccc2OCC(F)(F)F)cn(C)c1=O [Example 427, 1,3-dimethyl-5-[5-(methylsulfonylmethyl)-2-(2,2,2-trifluoroethoxy)phenyl]pyridin-2-one] |
| < 500 | – | – | – | – | – | – | – | > 5000 | 500 to 5000 | > 5000 | Cc1cc(-c2nc(CS(C)(=O)=O)ncc2OCC2CC2)cn(C)c1=O [Example 144, 5-[5-(cyclopropylmethoxy)-2-(methylsulfonylmethyl)pyrimidin-4-yl]-1,3-dimethylpyridin-2-one] |
| < 500 | – | – | – | – | – | – | – | < 500 | < 500 | > 5000 | Cn1cc(-c2nc(S(C)(=O)=O)ccc2OCC2CC2)c2ccccc2c1=O [Example 199, 4-[3-(cyclopropylmethoxy)-6-methylsulfonylpyridin-2-yl]-2-methylisoquinolin-1-one] |
| < 500 | – | – | – | – | – | – | – | < 500 | < 500 | > 5000 | CCS(=O)(=O)c1ccc(NCC2CC2)c(-c2cn(C)c(=O)c3ccccc23)c1 [Example 193, 4-[2-(cyclopropylmethylamino)-5-ethylsulfonylphenyl]-2-methylisoquinolin-1-one] |
| < 500 | – | – | – | – | – | – | – | < 500 | < 500 | > 5000 | CCS(=O)(=O)Nc1ccc(Oc2ccc(F)cc2F)c(-c2cc(C)c(=O)n(CC3CC3)c2)c1 [Example 247, N-[3-[1-(cyclopropylmethyl)-5-methyl-6-oxopyridin-3-yl]-4-(2,4-difluoro-phenoxy)phenyl]ethanesulfonamide] |
| < 500 | – | – | – | – | – | – | – | < 500 | < 500 | > 5000 | CCS(=O)(=O)Nc1cnc(OCC2CC2)c(-c2cn(C)c(=O)c3occc23)c1 [Example 257, N-[6-(cyclopropylmethoxy)-5-(6-methyl-7-oxofuro[2,3-c]pyridin-4-yl)pyridine-3-yl]ethanesulfonamide] |
| – | – | – | – | < 500 | < 500 | < 500 | > 5000 | – | – | – | Cn1cc(-c2cc(S(C)(=O)=O)ccc2OCC2CC2)c2ccc(F)cc2c1=O [Example 91, 4-[2-(cyclopropylmethoxy)-5-methylsulfonylphenyl]-7-fluoro-2-methyl-isoquinolin-1-one] |
| < 500 | – | – | – | – | – | – | – | < 500 | < 500 | > 5000 | CCS(=O)(=O)c1ccc(OCC2CC2)c(-c2cn(C)c(=O)c3ccc(F)cc23)c1 [Example 174, 4-[2-(cyclopropylmethoxy)-5-ethylsulfonylphenyl]-6-fluoro-2-methylisoquinolin-1-one] |
| < 500 | – | – | – | – | – | – | – | < 500 | < 500 | > 5000 | CCCc1cnc(NS(=O)(=O)CC)nc1-c1cc(C)c(=O)n(C)c1 [Example 308, N-[4-(1,5-dimethyl-6-oxopyridin-3-yl)-5-propylpyrimidin-2-yl] ethanesulfonamide] |
| < 500 | 500 to 5000 | < 500 | > 5000 | – | – | – | – | – | – | – | CCS(=O)(=O)c1ccc(NCC2CC2)c(-c2ccc(=O)n(C)c2)c1 [Example 473, 5-[2-(cyclopropylmethylamino)-5-ethylsulfonylphenyl]-1-methylpyridin-2-one] |
| < 500 | – | – | – | – | – | – | – | < 500 | < 500 | > 5000 | CCS(=O)(=O)c1ccc(OCC2CC2)c(-c2cn(C)c(=O)c3c2CCCC3)c1 [Example 219, 4-[2-(cyclopropylmethoxy)-5-ethylsulfonylphenyl]-2-methyl-5,6,7,8-tetrahydroisoquinolin-1-one] |
| < 500 | – | – | – | – | – | – | – | 500 to 5000 | < 500 | > 5000 | C#Cc1cc(-c2cc(NS(=O)(=O)CC)ccc2Oc2ccc(F)cc2F)cn(C)c1=O [Example 283, N-[4-(2,4-difluorophenoxy)-3-(5-ethynyl-1-methyl-6-oxopyridin-3-yl)phenyl]ethanesulfonamide] |
| < 500 | < 500 | < 500 | > 5000 | – | – | – | – | – | – | – | Cc1cc(-c2cc(S(C)(=O)=O)ccc2OCC2CCC2)cn(C)c1=O [Example 459, 5-[2-(cyclobutylmethoxy)-5-methylsulfonylphenyl]-1,3-dimethylpyridin-2-one] |
| < 500 | 500 to 5000 | < 500 | > 5000 | – | – | – | – | – | – | – | Cc1cc(-c2cc(S(C)(=O)=O)ccc2OCC2CC2)cn(C)c1=O [Example 476, 5-[2-(cyclopropylmethoxy)-5-methylsulfonylphenyl]-1,3-dimethylpyridin-2-one] |
| < 500 | > 5000 | 500 to 5000 | > 5000 | – | – | – | – | – | – | – | COCC1COc2cc(S(C)(=O)=O)cc(-c3cc(C)c(=O)n(C)c3)c2O1 (stereo not shown) [Example 498, 5-[3-(methoxymethyl)-7-methylsulfonyl-2,3-dihydro-1,4-benzodioxin-5-yl]-1,3-dimethylpyridin-2-one] |
| < 500 | – | – | – | – | – | – | – | < 500 | < 500 | > 5000 | CCCOc1ccc(S(C)(=O)=O)cc1-c1cn(C)c(=O)c2ccccc12 [Example 178, 2-methyl-4-(5-methylsulfonyl-2-propoxyphenyl)isoquinolin-1-one] |
| < 500 | > 5000 | < 500 | > 5000 | – | – | – | – | – | – | – | Cc1cc(-c2cc(S(C)(=O)=O)ccc2O[C@H]2CC[C@H](N)CC2)cn(C)c1=O [Example 404, 5-[2-(trans-4-aminocyclohexyl)oxy-5-methylsulfonylphenyl]-1,3-dimethylpyridin-2-one] |
| – | – | – | – | < 500 | < 500 | < 500 | 500 to 5000 | – | – | – | CCS(=O)(=O)Nc1ccc(Cl)c(-c2cn(C)c(=O)c3ccc(-c4cnn(C)c4)cc23)c1 [Example 45, N-[4-chloro-3-[2-methyl-6-(1-methylpyrazol-4-yl)-1-oxoisoquinolin-4-yl]phenyl]ethanesulfonamide] |
| < 500 | < 500 | < 500 | > 5000 | – | – | – | – | – | – | – | CCS(=O)(=O)c1ccc(NCC2CC2)c(-c2cc(C)c(=O)n(C)c2)c1 [Example 465, 5-[2-(cyclopropylmethylamino)-5-ethylsulfonylphenyl]-1,3-dimethylpyridin-2-one] |
| < 500 | < 500 | < 500 | 500 to 5000 | – | – | – | – | – | – | – | CCS(=O)(=O)c1ccc(OCC2CC2)c(-c2cn(C)c(=O)c3ccoc23)c1 [Example 378, 7-[2-(cyclopropylmethoxy)-5-ethylsulfonylphenyl]-5-methylfuro[3,2-c] pyridin-4-one] |
| – | – | – | – | < 500 | 500 to 5000 | < 500 | 500 to 5000 | – | – | – | COc1ccc(-c2cc(N(C)C)c(=O)n(C)c2)cc1NS(C)(=O)=O [Example 113, N-[5-[5-(dimethylamino)-1-methyl-6-oxopyridin-3-yl]-2-methoxyphenyl]methanesulfonamide] |
| – | – | – | – | < 500 | < 500 | < 500 | 500 to 5000 | – | – | – | CCS(=O)(=O)c1ccc(OCC2CC2)c(-c2cn(C)c(=O)c3ccc(-c4cnn(C)c4)cc23)c1 [Example 82, 4-[2-(cyclopropylmethoxy)-5-ethylsulfonylphenyl]-2-methyl-6-(1-methylpyrazol-4-yl)isoquinolin-1-one] |

| Structure (SMILES) | IC50 (BRD4(BD1); [4]) [nM] | IC50 [1, 5] [nM] | IC50 [2, 6] [nM] | IC50 [3, 7] [nM] | IC50 (BRD4(BD1); class symbols A/B/C) [nM] | IC50 [1, 8] [nM] | IC50 [2, 9] [nM] | IC50 [3, 10] [nM] | IC50 ([1]; Raji, Cell-MTS proliferation) [nM] | IC50 ([2]; HL-60, Cell-MTS proliferation) [nM] | IC50 [3, 11] [nM] |
| --- | --- | --- | --- | --- | --- | --- | --- | --- | --- | --- | --- |
| COc1ccc(-c2cn(C)c(=O)c3cncn23)cc1NS(C)(=O)=O [Example 132, N-[2-methoxy-5-(7-methyl-8-oxoimidazo[1,5-a]pyrazin-5-yl)phenyl]methanesulfonamide] | – | – | – | – | 500 to 5000 | > 5000 | 500 to 5000 | 500 to 5000 | – | – | – |
